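Five compound concentrations were applied to cells in 96-well plates for 48 hours; endpoints were derived by simple linear interpolation of the resulting dose-response curve. Here, GI50 denotes the concentration required for 50% inhibition of growth.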 Calls of active or inactive are those of the source. Rule as the data show it: active = GI50 up to about 1.1 µM and inactive = higher.
Key:
Assay in all cases: growth of human tumour cells (NCI), 48 h
[1] = test system: OVCAR-8
[2] = test system: DU-145
[3] = test system: SN12C
[4] = test system: U-251
[5] = test system: SNB-75
[6] = test system: TK-10
[7] = test system: HCC 2998
[8] = test system: NCI-H226
[9] = test system: SK-OV-3
[10] = test system: M14
[11] = test system: NCI/ADR-RES
[12] = test system: SK-MEL-28
[13] = test system: HOP-62
[14] = test system: IGROV-1
[15] = test system: RXF 393
[16] = test system: OVCAR-4
[17] = test system: PC-3
[18] = test system: 786-0
[19] = test system: Hs-578T
[20] = test system: HL-60

Measured: GI50

FC(F)(Sc1nc2ccccc2[nH]1)c1nc2ccccc2o1
inactive: [1] 43.1 µM | [2] > 100 µM | [3] > 100 µM | [4] > 100 µM | [5] > 100 µM | [6] > 100 µM | [7] > 100 µM | [8] > 100 µM | [9] > 100 µM | [10] > 100 µM | [11] > 100 µM | [12] > 100 µM | [13] > 100 µM | [14] > 100 µM | [15] > 100 µM | [16] > 100 µM | [17] > 100 µM | [18] > 100 µM | [19] > 100 µM

CC1(/C=C/CCSc2ccccc2)CC(=O)C2CC1C2(C)C (stereo not given)
inactive: [1] 22.3 µM | [2] 44.3 µM | [3] 19.1 µM | [4] 14.9 µM | [5] 11.2 µM | [6] 14.9 µM | [7] 12.5 µM | [8] 24.8 µM | [9] > 72.4 µM | [10] 23.8 µM | [11] 11 µM | [12] 25.1 µM | [13] 36.9 µM | [14] 17.8 µM | [15] 29.3 µM | [16] 38.5 µM | [17] 6.08 µM | [18] 20.2 µM | [19] 22.9 µM

O=C1CCCC/C1=C\c1ccc([N+](=O)[O-])cc1
inactive: [1] 19.4 µM | [2] 39.1 µM | [3] 13.5 µM | [4] 16.1 µM | [5] 18.3 µM | [20] 42.5 µM | [6] 8.67 µM | [7] 12.3 µM | [9] 17.2 µM | [10] 18.4 µM | [11] 19.5 µM | [12] 11.4 µM | [13] 11.5 µM | [14] 17.1 µM | [16] 22.5 µM | [17] 2.03 µM | [18] 14.9 µM | [19] 28.3 µM

CC1(C)C2CCC(O)(C2)C1N (stereo not given)
inactive: [1] > 100 µM | [2] > 100 µM | [3] > 100 µM | [4] > 100 µM | [5] > 100 µM | [6] > 100 µM | [7] > 100 µM | [8] > 100 µM | [9] > 100 µM | [10] > 100 µM | [11] > 100 µM | [12] > 100 µM | [13] > 100 µM | [14] > 100 µM | [15] > 100 µM | [16] > 100 µM | [17] > 100 µM | [18] > 100 µM | [19] > 100 µM

— ChEMBL document CHEMBL1201862, “PubChem BioAssay data set” (2004)
